Reference: PMC8623398, “Investigation of the Mechanisms of Cytotoxic Activity of 1,3-Disubstituted Thiourea Derivatives” (Pharmaceuticals, 2021)

Columns and labels:
Type in all cases: cell-based, human
SW480 cells [1] = assay: Trypan blue assay, SW480; conditions: SW480, 72 h; for Cell Number × 10^5 / Viability (%): compound at IC50 concentration
Experimental: (§1) In order to estimate the tumor and normal cell population density and their viability after treatment with compounds 1–3, 8, and 9, the trypan blue dye exclusion assay was performed. The live cell number of all cancerous cells incubated for 72 h with the studied thioureas was considerably lower in comparison with the controls (Table 2; Figure S1A). The highest reduction in cell amount was denoted for both colon SW480 and SW620 cells treated with the dichlorophenyl derivative 2, and it accounted for 93%. […] Similarly, a noticeable decline in both colon cancer cell populations was observed after treatment with the ortho-substituted compound 8. The number of live cells equaled 12% and 18%, respectively, as compared to controls. This thiourea also led to a reduction of PC3 cells of 38%, and leukemia K-562 cell lines of 27%. The number of SW620 and PC3 cells decreased by 72% and 63% in the presence of para-substituted compound 9. However, the reducing influence of this thiourea on the number of other cancerous cells was at the level of 21–32%. […] A significant effect on the other studied pathological cells was also noticed and accounted for 32–46%. Furthermore, the derivative 3 reduced the amount of live cancer cells by 32–59%, of which its decreasing impact on colon cancer cells was the greatest.
(§2) The live cell count was assessed by the trypan blue exclusion dye assay using an automated cell counter (CountessTM Invitrogen, Waltham, MA, USA). Untreated cells were used as the control.

K-562 cells [2] = assay: MTT assay, K562; conditions: 50% growth inhibition
Experimental: (§3) As a first step in assessing their cytotoxic properties, all thioureas of the series were assayed against four human carcinoma cell lines, such as SW480 (primary colon cancer), SW620 (metastatic colon cancer), PC3 (metastatic prostate cancer), and K-562 (chronic myelogenous leukemia), as well as against the normal cell line HaCaT (immortalized human keratinocytes). Table 1 lists the compound concentrations that produced 50% of growth inhibition (IC50, μM), generated by the MTT method, in comparison with two commonly used chemotherapeutic agents, doxorubicin and cisplatin.
(§4) The human primary (SW480), metastatic (SW620) colon cancer, metastatic prostate cancer (PC3), chronic myelogenous leukemia (K-562), and human immortal keratinocyte (HaCaT) cell lines were purchased from the American Type Culture Collection (ATCC, Rockville, MD, USA). The cells were cultured in medium according to protocols (MEM for SW480 and SW620, RPMI 1640 for PC3 and K-562, and DMEM for HaCaT cells), supplemented with 10% FBS, penicillin (100 U/mL) and streptomycin (100 μg/mL), and cultured in a 37 °C/5% CO2 humidified incubator. The cells were cultured until appropriate confluence was achieved (80–90%). Next, they were harvested by treatment with 0.25% trypsin (Gibco Life Technologies, Waltham, MA, USA) excluding the non-adherent K-562 cell line and used for studies.
(§5) Cells without the studied compounds in medium were used as a control.
(§6) The cell viability was assessed by determination of MTT salt [3-(4,5-dimethylthiazol-2-yl)-2,5-diphenyltetrazoliumbromide] conversion by mitochondrial dehydrogenase. The MTT assay was performed as previously described. Alternatively, non-adherent leukemic cells were centrifuged in a microplate centrifuge (400× g, 5 min) during the collection stages. Experiments were repeated three times. Cell viability was presented as a percent of MTT reduction in the treated cells versus the control cells. The number of viable cells cultured without the studied compounds was assumed as 100%. A decreased relative MTT level indicated decreased cell viability. Thiourea compounds with the highest cytotoxic potential assessed by MTT determination (with the lowest IC50) were chosen for subsequent assessments of cytotoxicity mechanisms.

K-562 cells [3] = assay: Trypan blue assay, K-562; conditions: K-562, 72 h; for Cell Number × 10^5 / Viability (%): compound at IC50 concentration; for reduction in live cell number: IC50 concentration, vs control
Experimental: as §1, §2

PC3 cells = assay: Trypan blue assay, PC3; conditions: PC3, 72 h; for Cell Number × 10^5 / Viability (%): compound at IC50 concentration; for reduction in live cell number: IC50 concentration, vs control
Experimental: as §1, §2

SW620 cells [4] = assay: Trypan blue assay, SW620; conditions: SW620, 72 h; for Cell Number × 10^5 / Viability (%): compound at IC50 concentration; for reduction in live cell number: vs control
Experimental: as §1, §2

HaCaT cells = assay: MTT assay, HaCaT normal cells; conditions: Homo sapiens, HaCaT, 72 h
Experimental: as §3, §4, §5, §6

SW620 cells [5] = assay: MTT assay, SW620; conditions: Homo sapiens, SW-620, 72 h, 50% growth inhibition
Experimental: as §3, §4, §5, §6

SW480 cells [6] = assay: Annexin V-FITC/PI flow cytometry, SW480; conditions: SW480, 72 h, IC50 concentration
Experimental: To estimate the mechanism of anticancer activity of the selected compounds 1–3, 8, and 9, their effect on both early and late apoptosis was evaluated by flow cytometry analysis. […] Additionally, visible late apoptosis-inducing properties in these cell lines were denoted for the compound 9 (47% ± 3.0%), which was twice as strong towards the colon tumor cells mentioned above. The apoptotic properties of analogs 3 and 8 in K-562 cells varied from 30% ± 1.6% to 33% ± 2.3%. […] Whereas the apoptosis-generating influence of derivatives 2 and 3 on normal keratinocytes was higher (29% and 23%), their selectivity measured by MTT methods is favorable. The obtained results are in agreement with the IC50 values assigned to pathological cancer cell lines. The cells were cultured and harvested under the conditions described in Section 3.2.1. […] The effect of these compounds on the process of early and late apoptosis and necrosis was determined as described previously by dual staining with Annexin V:FITC and propidium iodide, according to the manufacturer’s protocol (Becton Dickinson). The cells that were Annexin V:FITC positive and PI negative were identified as early apoptotic, and Annexin V:FITC and PI positive as late apoptotic or necrotic.

SMILES | IC50 (K-562 cells [2]; Homo sapiens, K562, 72 h) | IC50 (SW620 cells [5]) | IC50 (K-562 cells [2]; 72 h) | Cell Number × 10^5 (SW480 cells [1]) | Viability (%) (SW480 cells [1]) | Cell Number × 10^5 (K-562 cells [3]) | Viability (%) (K-562 cells [3]) | Cell Number × 10^5 (PC3 cells) | Viability (%) (PC3 cells) | Cell Number × 10^5 (SW620 cells [4]) | Viability (%) (SW620 cells [4]) | IC50 (HaCaT cells) | cells in late apoptosis (SW480 cells [6]) | reduction in live cell number (SW480 cells [1]; IC50 concentration, vs control) | reduction in live cell number (K-562 cells [3]) | reduction in live cell number (PC3 cells) | reduction in live cell number (SW620 cells [4]; IC50 concentration) | number of live cells as compared to controls (SW480 cells [1]; IC50 concentration) | decrease of cell viability (SW620 cells [4]; IC50 concentration) | number of live cells as compared to controls (SW620 cells [4]; IC50 concentration)
Fc1ccc(NC(=S)Nc2cccc(C(F)(F)F)c2)cc1Cl [Compound 1, 1-(3-chloro-4-fluorophenyl)-3-[3-(trifluoromethyl)phenyl]thiourea] | 6.8 ± 1.57 µM | 9.4 ± 1.85 µM | – | 2.0 ± 0.30 × 10^5 | 69 ± 1.30% | 1.8 ± 0.24 × 10^5 | 93 ± 2.05% | 2.3 ± 0.15 × 10^5 | 93 ± 1.50% | 1.3 ± 0.25 × 10^5 | 79 ± 1.30% | 43.6 ± 4.22 µM | 60% ± 1.8% | – | – | – | – | – | – | –
FC(F)(F)c1cccc(NC(=S)Nc2ccc(Cl)c(Cl)c2)c1 [Compound 2, 1-(3,4-dichlorophenyl)-3-[3-(trifluoromethyl)phenyl]thiourea] | 6.3 ± 1.28 µM | 1.5 ± 0.72 µM | – | 0.3 ± 0.35 × 10^5 | 45 ± 2.40% | 1.0 ± 0.21 × 10^5 | 55 ± 1.03% | 2.4 ± 0.16 × 10^5 | 93 ± 1.40% | 0.4 ± 0.22 × 10^5 | 42 ± 1.30% | 24.7 ± 0.05 µM | 95% ± 1.5% | 93% | 66% | 69% | 93% | – | – | –
FC(F)(F)c1cccc(NC(S)=Nc2ccc(Cl)cc2Cl)c1 [Compound 3, 1-(2,4-dichlorophenyl)-3-[3-(trifluoromethyl)phenyl]thiourea] | 54.3 ± 1.86 µM | 5.8 ± 0.76 µM | – | 1.5 ± 0.10 × 10^5 | 90 ± 1.30% | 3.0 ± 0.27 × 10^5 | 85 ± 1.20% | 1.8 ± 0.18 × 10^5 | 58 ± 1.20% | 2.4 ± 0.20 × 10^5 | 93 ± 2.33% | 52.1 ± 0.95 µM | – | – | – | – | – | – | – | –

Further lines, with some results ahead:

IC50 (K-562 cells [2]; Homo sapiens, K562, 72 h) | IC50 (SW620 cells [5]) | IC50 (K-562 cells [2]; 72 h) | SMILES | Cell Number × 10^5 (SW480 cells [1]) | Viability (%) (SW480 cells [1]) | Cell Number × 10^5 (K-562 cells [3]) | Viability (%) (K-562 cells [3]) | Cell Number × 10^5 (PC3 cells) | Viability (%) (PC3 cells) | Cell Number × 10^5 (SW620 cells [4]) | Viability (%) (SW620 cells [4]) | IC50 (HaCaT cells) | cells in late apoptosis (SW480 cells [6]) | reduction in live cell number (SW480 cells [1]; IC50 concentration, vs control) | reduction in live cell number (K-562 cells [3]) | reduction in live cell number (PC3 cells) | reduction in live cell number (SW620 cells [4]; IC50 concentration) | number of live cells as compared to controls (SW480 cells [1]; IC50 concentration) | decrease of cell viability (SW620 cells [4]; IC50 concentration) | number of live cells as compared to controls (SW620 cells [4]; IC50 concentration)
54.8 ± 0.24 µM | 7.6 ± 1.75 µM | – | FC(F)(F)c1ccc(NC(=S)Nc2cccc(C(F)(F)F)c2)cc1 [Compound 8, 1-[3-(trifluoromethyl)phenyl]-3-[4-(trifluoromethyl)phenyl]thiourea] | 0.4 ± 0.15 × 10^5 | 90 ± 2.30% | 3.2 ± 0.14 × 10^5 | 88 ± 1.10% | 2.1 ± 0.12 × 10^5 | 82 ± 1.10% | 1.0 ± 0.20 × 10^5 | 55 ± 1.11% | 41.3 ± 0.17 µM | 97% ± 1.2% | – | 27% | 38% | – | 12% | 45% | 18%
10.2 to 12.9 µM | 6.7 ± 1.74 µM | 10.2 ± 0.35 µM | FC(F)(F)c1cccc(NC(=S)Nc2ccc(Cl)cc2)c1 [Compound 9, 1-(4-chlorophenyl)-3-[3-(trifluoromethyl)phenyl]thiourea] | 2.5 ± 0.12 × 10^5 | 72 ± 2.25% | 3.5 ± 0.22 × 10^5 | 90 ± 2.40% | 1.2 ± 0.15 × 10^5 | 73 ± 1.99% | 1.6 ± 0.11 × 10^5 | 84 ± 3.08% | 71.5 ± 3.08 µM | 24% ± 0.4% | – | – | 63% | 72% | – | – | –
